US7642270B2, “5-oxo-5,8-dihydro-pyrido-pyrimidine as inhibitors of c-fms kinase” (Janssen Pharmaceutica N.V., priority 2005, dated 2010)

Biological target: c-fms (Homo sapiens, UniProt P07333)
Test: c-fms autophosphorylation, fluorescence polarization competition immunoassay
Assay type: biochemical
Settings: 10 nM c-fms, 1 mM ATP, 5 mM MgCl2, 45 min room temperature; averages of three independent measurements; read-out: c-fms Autophosphorylation IC50
Method: Autophosphorylation, Fluorescence Polarization Competition Immunoassay
The assay buffer used was 100 mM 4-(2-hydroxyethyl)piperazine 1-ethanesulfonic acid (HEPES), pH 7.5, 1 mM 1,4-dithio-DL-threitol (DTT), 0.01% (v/v) Tween-20. Compounds were diluted in assay buffer containing 4% dimethylsulfoxide (DMSO) just prior to the assay. […] The kinase reaction was initiated by adding 2 μL of 5 mM ATP (Sigma) in assay buffer. The final concentrations in the assay were 10 nM c-fms, 1 mM ATP, 5 mM MgCl2, 2% DMSO. Control reactions were ran in each plate: in positive and negative control wells, assay buffer (made 4% in DMSO) was substituted for the compound; in addition, positive control wells received 1.2 μL of 50 mM ethylenediaminetetraaceticacid (EDTA).
The plates were incubated at room temperature for 45 min. At the end of the incubation, the reaction was quenched with 1.2 μL of 50 mM EDTA (EDTA was not added to the positive control wells at this point; see above). Following a 5-min incubation, each well received 10 μL of a 1:1:3 mixture of anti-phosphotyrosine antibody, 10×, PTK green tracer, 10× (vortexed), FP dilution buffer, respectively (all from PanVera, cat. # P2837). The plate was covered, incubated for 30 min at room temperature and the fluorescence polarization was read on the Analyst.
The IC50 values shown in Table 1 are averages of three independent measurements.

Sequence of c-fms (P07333 20-972): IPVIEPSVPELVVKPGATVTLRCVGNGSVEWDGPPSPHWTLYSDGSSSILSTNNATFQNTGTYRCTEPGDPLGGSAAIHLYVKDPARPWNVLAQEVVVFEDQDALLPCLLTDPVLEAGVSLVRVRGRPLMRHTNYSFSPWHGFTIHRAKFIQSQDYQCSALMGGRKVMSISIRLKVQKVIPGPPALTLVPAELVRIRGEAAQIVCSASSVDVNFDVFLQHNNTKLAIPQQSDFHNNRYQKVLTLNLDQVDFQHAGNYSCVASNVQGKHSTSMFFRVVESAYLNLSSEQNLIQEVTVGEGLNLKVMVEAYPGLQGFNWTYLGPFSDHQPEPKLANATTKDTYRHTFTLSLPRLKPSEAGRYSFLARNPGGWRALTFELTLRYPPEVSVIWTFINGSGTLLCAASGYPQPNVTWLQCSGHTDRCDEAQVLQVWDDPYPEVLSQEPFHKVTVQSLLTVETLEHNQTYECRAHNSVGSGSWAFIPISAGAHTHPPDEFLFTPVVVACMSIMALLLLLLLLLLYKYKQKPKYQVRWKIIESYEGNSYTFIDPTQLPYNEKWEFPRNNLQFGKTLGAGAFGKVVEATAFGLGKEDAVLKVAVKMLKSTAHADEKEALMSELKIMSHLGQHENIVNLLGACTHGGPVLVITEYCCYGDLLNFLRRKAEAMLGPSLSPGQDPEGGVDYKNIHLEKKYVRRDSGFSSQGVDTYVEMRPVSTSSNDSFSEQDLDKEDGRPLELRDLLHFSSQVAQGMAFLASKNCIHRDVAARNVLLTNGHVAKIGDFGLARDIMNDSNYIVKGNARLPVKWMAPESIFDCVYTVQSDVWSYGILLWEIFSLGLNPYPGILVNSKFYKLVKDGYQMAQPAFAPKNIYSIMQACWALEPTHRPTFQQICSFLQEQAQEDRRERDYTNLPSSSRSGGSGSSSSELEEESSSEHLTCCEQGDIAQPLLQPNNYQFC

Row | Structure (SMILES) | IC50
1 | CCOC(=O)c1cn(C2CCCCC2)c2nc(Nc3ccc(N4CCN(C)CC4)cc3)ncc2c1=O [Cpd 17, 8-Cyclohexyl-2-[4-(4-methyl-piperazin-1-yl)-phenylamino]-5-oxo-5,8-dihydro-pyrido[2,3-d]pyrimidine-6-carboxylic acid ethyl ester] | 1700 nM
2 | CCNC(=O)c1cn(C2CCCCC2)c2nc(Nc3ccc(N4CCN(C)CC4)cc3)ncc2c1=O [Cpd 62, 8-Cyclohexyl-2-[4-(4-methyl-piperazin-1-yl)-phenylamino]-5-oxo-5,8-dihydro-pyrido[2,3-d]pyrimidine-6-carboxylic acid ethyl amide] | 190 nM
3 | NC(=O)c1cn(-c2ccc3c(c2)CCC3)c2nc(Nc3ccc(N4CCOCC4)cc3)ncc2c1=O [Cpd 14, 8-indan-5-yl-2-(4-morpholin-4-yl-phenylamino)-5-oxo-5,8-dihydro-pyrido[2,3-d]pyrimidine-6-carboxylic acid amide] | 19 nM
4 | CN(C)c1ccc(Nc2ncc3c(=O)c(C(N)=O)cn(-c4ccc5c(c4)CCC5)c3n2)cc1 [Cpd 15, 2-(4-Dimethylamino-phenylamino)-8-indan-5-yl-5-oxo-5,8-dihydro-pyrido[2,3-d]pyrimidine-6-carboxylic acid amide] | 70 nM
5 | CNC(=O)c1cn(-c2ccc3c(c2)CCC3)c2nc(Nc3ccc(N4CCN(C)CC4)cc3)ncc2c1=O [Cpd 8, 8-indan-5-yl-2-[4-(4-methyl-piperazin-1-yl)-phenylamino]-5-oxo-5,8-dihydro-pyrido[2,3-d]pyrimidine-6-carboxylic acid methylamide] | 31 nM
6 | CNC(=O)c1cn(-c2ccc3c(c2)CCC3)c2nc(Nc3ccc(N4CCNCC4)cc3)ncc2c1=O [Cpd 41, 8-indan-5-yl-5-oxo-2-(4-piperazin-1-yl-phenylamino)-5,8-dihydro-pyrido[2,3-d]pyrimidine-6-carboxylic acid methyl amide] | 11 nM
7 | CN(C)CC(=O)N1CCC(c2ccc(Nc3ncc4c(=O)c(C(N)=O)cn(-c5ccc6c(c5)CCC6)c4n3)cc2)CC1 [Cpd 70, 2-{4-[1-(2-Dimethylamino-acetyl)-piperidin-4-yl]-phenylamino}-8-indan-5-yl-5-oxo-5,8-dihydro-pyrido[2,3-d]pyrimidine-6-carboxylic acid amide] | 1100 nM
8 | CCNC(=O)c1cn(-c2ccc3c(c2)CCC3)c2nc(Nc3ccc(CCN4CCN(C)CC4)cc3)ncc2c1=O [Cpd 48, 8-Indan-5-yl-2-{4-[2-(4-methyl-piperazin-1-yl)-ethyl]-phenylamino}-5-oxo-5,8-dihydro-pyrido[2,3-d]pyrimidine-6-carboxylic acid ethyl amide] | 32 nM
9 | NC(=O)c1cn(C2CCCCC2)c2nc(Nc3ccc(CCN4CCOCC4)cc3)ncc2c1=O [Cpd 57, 8-Cyclohexyl-2-[4-(2-morpholin-4-yl-ethyl)-phenylamino]-5-oxo-5,8-dihydro-pyrido[2,3-d]pyrimidine-6-carboxylic acid amide] | 26 nM
10 | NC(=O)c1cn(C2CCCCC2)c2nc(Nc3ccc(CCS(=O)(=O)N4CCOCC4)cc3)ncc2c1=O [Cpd 67, 8-Cyclohexyl-2-{4-[2-(morpholine-4-sulfonyl)-ethyl]-phenylamino}-5-oxo-5,8-dihydro-pyrido[2,3-d]pyrimidine-6-carboxylic acid amide] | 120 nM
11 | CNC(=O)c1cn(-c2ccc3c(c2)CCC3)c2nc(Nc3ccc(CCS(=O)(=O)N4CCOCC4)cc3)ncc2c1=O [Cpd 35, 8-Indan-5-yl-2-{4-[2-(morpholine-4-sulfonyl)-ethyl]-phenylamino}-5-oxo-5,8-dihydro-pyrido[2,3-d]pyrimidine-6-carboxylic acid methyl amide] | 80 nM
12 | CCNC(=O)c1cn(-c2ccc3c(c2)CCC3)c2nc(Nc3ccc(CCN4CCOCC4)cc3)ncc2c1=O [Cpd 29, 8-Indan-5-yl-2-[4-(2-morpholin-4-yl-ethyl)-phenylamino]-5-oxo-5,8-dihydro-pyrido[2,3-d]pyrimidine-6-carboxylic acid ethyl amide] | 33 nM
13 | CN1CCN(CC(=O)N2CCC(c3cccc(Nc4ncc5c(=O)c(C(N)=O)cn(-c6ccc7c(c6)CCC7)c5n4)c3)CC2)CC1 [Cpd 73, 8-Indan-5-yl-2-(3-{1-[2-(4-methyl-piperazin-1-yl)-acetyl]-piperidin-4-yl}-phenylamino)-5-oxo-5,8-dihydro-pyrido[2,3-d]pyrimidine-6-carboxylic acid amide] | > 1000 nM
14 | NC(=O)c1cn(-c2ccc3c(c2)CCC3)c2nc(Nc3ccc(C[C@H]4COC(=O)N4)cc3)ncc2c1=O [Cpd 30, (4S)-8-Indan-5-yl-5-oxo-2-[4-(2-oxo-oxazolidin-4-ylmethyl)-phenylamino]-5,8-dihydro-pyrido[2,3-d]pyrimidine-6-carboxylic acid amide] | 12 nM
15 | CNC(=O)c1cn(-c2ccc3c(c2)CCC3)c2nc(Nc3cccc(CN(C)C)c3)ncc2c1=O [Cpd 77, 2-(3-Dimethylaminomethyl-phenylamino)-8-indan-5-yl-5-oxo-5,8-dihydro-pyrido[2,3-d]pyrimidine-6-carboxylic acid methylamide] | 150 nM
16 | CN(C)CC(=O)N1CCC(c2ccc(Nc3ncc4c(=O)c(C(N)=O)cn(C5CCCCC5)c4n3)cc2)CC1 [Cpd 68, 8-Cyclohexyl-2-{4-[1-(2-dimethylamino-acetyl)-piperidin-4-yl]-phenylamino}-5-oxo-5,8-dihydro-pyrido[2,3-d]pyrimidine-6-carboxylic acid amide] | 130 nM
17 | CNC(=O)c1cn(-c2ccc3c(c2)CCC3)c2nc(Nc3cccc(C(=O)N(C)C)c3)ncc2c1=O [Cpd 80, 2-(3-Dimethylcarbamoyl-phenylamino)-8-indan-5-yl-5-oxo-5,8-dihydro-pyrido[2,3-d]pyrimidine-6-carboxylic acid methylamide] | 74 nM
18 | CN1CCN(c2ccc(Nc3ncc4c(=O)c(C(N)=O)cn(C5CC6CCC5C6)c4n3)cc2)CC1 (stereo not shown) [Cpd 82, 8-Bicyclo[2.2.1]hept-2-yl-2-[4-(4-methyl-piperazin-1-yl)-phenylamino]-5-oxo-5,8-dihydro-pyrido[2,3-d]pyrimidine-6-carboxylic acid amide] | 81 nM
19 | CNC(=O)c1cn(-c2ccc3c(c2)CCC3)c2nc(Nc3ccc(CCS(=O)(=O)NC(C)C)cc3)ncc2c1=O [Cpd 33, 8-Indan-5-yl-2-[4-(2-isopropylsulfamoyl-ethyl)-phenylamino]-5-oxo-5,8-dihydro-pyrido[2,3-d]pyrimidine-6-carboxylic acid methyl amide] | 100 nM
20 | CCNC(=O)c1cn(-c2ccc3c(c2)CCC3)c2nc(Nc3ccc(N4CC(C)NC(C)C4)cc3)ncc2c1=O (stereo not shown) [Cpd 45, 2-[4-(3,5-Dimethyl-piperazin-1-yl)-phenylamino]-8-indan-5-yl-5-oxo-5,8-dihydro-pyrido[2,3-d]pyrimidine-6-carboxylic acid ethyl amide] | 12 nM
21 | CNC(=O)c1cn(C2CCCCC2)c2nc(Nc3ccc(N4CCN(C)CC4)cc3)ncc2c1=O [Cpd 61, 8-Cyclohexyl-2-[4-(4-methyl-piperazin-1-yl)-phenylamino]-5-oxo-5,8-dihydro-pyrido[2,3-d]pyrimidine-6-carboxylic acid methyl amide] | 160 nM
22 | NC(=O)c1cn(-c2ccc3c(c2)CCC3)c2nc(Nc3cccc(CN4CCOCC4)c3)ncc2c1=O [Cpd 24, 8-Indan-5-yl-2-(3-morpholin-4-ylmethyl-phenylamino)-5-oxo-5,8-dihydro-pyrido[2,3-d]pyrimidine-6-carboxylic acid amide] | 18 nM
23 | CN1CCN(c2cccc(Nc3ncc4c(=O)c(C(N)=O)cn(-c5ccc6c(c5)CCC6)c4n3)c2)CC1 [Cpd 37, 8-Indan-5-yl-2-[3-(4-methyl-piperazin-1-yl)-phenylamino]-5-oxo-5,8-dihydro-pyrido[2,3-d]pyrimidine-6-carboxylic acid amide] | 8 nM
24 | NC(=O)c1cn(-c2ccc3c(c2)CCC3)c2nc(Nc3ccc(CCN4CCOCC4)cc3)ncc2c1=O [Cpd 27, 8-Indan-5-yl-2-[4-(2-morpholin-4-yl-ethyl)-phenylamino]-5-oxo-5,8-dihydro-pyrido[2,3-d]pyrimidine-6-carboxylic acid amide] | 10 nM
25 | CC(C)NS(=O)(=O)CCc1ccc(Nc2ncc3c(=O)c(C(N)=O)cn(C4CCCCC4)c3n2)cc1 [Cpd 66, 8-Cyclohexyl-2-[4-(2-isopropylsulfamoyl-ethyl)-phenylamino]-5-oxo-5,8-dihydro-pyrido[2,3-d]pyrimidine-6-carboxylic acid amide] | 120 nM
26 | CN1CCN(c2ccc(Nc3ncc4c(=O)c(C(=O)O)cn(-c5ccc6c(c5)CCC6)c4n3)cc2)CC1 [Cpd 6, 8-Indan-5-yl-2-[4-(4-methyl-piperazin-1-yl)-phenylamino]-5-oxo-5,8-dihydro-pyrido[2,3-d]pyrimidine-6-carboxylic acid] | 1100 nM
27 | CN(C)Cc1cccc(Nc2ncc3c(=O)c(C(N)=O)cn(-c4ccc5c(c4)CCC5)c3n2)c1 [Cpd 76, 2-(3-Dimethylaminomethyl-phenylamino)-8-indan-5-yl-5-oxo-5,8-dihydro-pyrido[2,3-d]pyrimidine-6-carboxylic acid amide] | 18 nM
28 | CN1CCN(c2ccc(Nc3ncc4c(=O)c(C(N)=O)cn(C5CCCC5)c4n3)cc2)CC1 [Cpd 19, 8-Cyclopentyl-2-[4-(4-methyl-piperazin-1-yl)-phenylamino]-5-oxo-5,8-dihydro-pyrido[2,3-d]pyrimidine-6-carboxylic acid amide] | 56 nM
